Assays:
[1] = target: T1, Sigma non-opioid intracellular receptor 1 (Rattus norvegicus, UniProt Q9R0C9); experiment: Displacement of [3H]-(+)-pentazocine from sigma 1 receptor in rat liver membranes incubated for 60 mins […] by radioactivity method; format: cell membranes, Membrane
[2] = target: T2, Sigma intracellular receptor 2 (Rattus norvegicus, UniProt Q5U3Y7); experiment: Displacement of [3H]DTG from sigma 2 receptor in rat liver membranes incubated for 60 mins in presence of [3H]-(+)-pentazocine by radioactivity method; format: cell membranes, Membrane
T2 sequence (Q5U3Y7 whole entry): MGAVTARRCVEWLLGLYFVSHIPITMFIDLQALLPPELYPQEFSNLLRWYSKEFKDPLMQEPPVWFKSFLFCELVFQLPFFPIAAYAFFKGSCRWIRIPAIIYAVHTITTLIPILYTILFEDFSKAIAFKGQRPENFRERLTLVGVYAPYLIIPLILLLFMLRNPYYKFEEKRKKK

[3] = target: T3, Sigma non-opioid intracellular receptor 1 (Cavia porcellus, UniProt Q60492); experiment: Displacement of [3H]-(+)-pentazocine from sigma 1 receptor in guinea pig brain cortex membranes incubated for 120 mins by solid scintillation counting method; format: cell membranes, Membrane
T3 sequence (Q60492 whole entry): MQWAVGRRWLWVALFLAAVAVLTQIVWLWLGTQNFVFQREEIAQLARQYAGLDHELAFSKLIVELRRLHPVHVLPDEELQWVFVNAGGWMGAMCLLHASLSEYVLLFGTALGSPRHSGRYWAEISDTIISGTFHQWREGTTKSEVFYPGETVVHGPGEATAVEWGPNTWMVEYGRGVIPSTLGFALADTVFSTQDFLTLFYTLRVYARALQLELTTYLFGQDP

[4] = target: T2, Sigma intracellular receptor 2; experiment: Displacement of [3H]DTG from sigma2 receptor in rat liver membranes incubated for 120 mins by solid scintillation counting method; format: cell membranes, Membrane
[5] = Selectivity ratio of Ki for displacement of [3H]DTG from sigma2 receptor in rat liver membranes to Ki for displacement of [3H]-(+)-pentazocine from sigma1 receptor in guinea pig brain cortex membranes; format: cell membranes
[6] = target: T3, Sigma non-opioid intracellular receptor 1; experiment: Displacement of [3H]-(+)-pentazocine from sigma1 receptor in guinea pig brain cortex membranes incubated for 120 mins by solid scintillation counting method; format: cell membranes, Membrane
[7] = target: T4, Sigma non-opioid intracellular receptor 1 (Homo sapiens, UniProt Q99720)
T4 sequence (Q99720 whole entry): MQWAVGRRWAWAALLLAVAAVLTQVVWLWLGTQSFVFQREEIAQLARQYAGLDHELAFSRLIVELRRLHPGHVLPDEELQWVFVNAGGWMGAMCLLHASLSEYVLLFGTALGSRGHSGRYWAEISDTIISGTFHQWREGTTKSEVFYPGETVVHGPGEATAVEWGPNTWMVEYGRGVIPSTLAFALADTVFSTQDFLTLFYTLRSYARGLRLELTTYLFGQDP

[8] = target: T1, Sigma non-opioid intracellular receptor 1; format: cell membranes, Sprague-Dawley, Brain, Membrane
[9] = target: T2, Sigma intracellular receptor 2; format: cell membranes, Sprague-Dawley, Brain, Membrane
[10] = target: D(4) dopamine receptor (Homo sapiens) (UniProt P21917); experiment: Inhibition of radioligand binding to dopamine D4 receptor (unknown origin) at 1 uM relative to control
Sequence of D(4) dopamine receptor (Homo sapiens) (P21917 whole entry): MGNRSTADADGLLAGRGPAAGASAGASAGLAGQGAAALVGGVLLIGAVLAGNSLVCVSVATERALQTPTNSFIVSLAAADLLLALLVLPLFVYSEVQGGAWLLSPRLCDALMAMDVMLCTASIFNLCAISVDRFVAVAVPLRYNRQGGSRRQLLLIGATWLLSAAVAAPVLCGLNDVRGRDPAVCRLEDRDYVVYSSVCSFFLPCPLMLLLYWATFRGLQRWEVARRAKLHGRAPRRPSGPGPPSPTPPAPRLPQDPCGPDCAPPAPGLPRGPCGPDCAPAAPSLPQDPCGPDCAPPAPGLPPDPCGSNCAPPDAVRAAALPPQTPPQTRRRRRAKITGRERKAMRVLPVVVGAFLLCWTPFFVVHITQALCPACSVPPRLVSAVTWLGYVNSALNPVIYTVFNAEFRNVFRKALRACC

[11] = target: Histamine H2 receptor (Homo sapiens) (UniProt P25021); experiment: Inhibition of radioligand binding to histamine H2 receptor (unknown origin) at 1 uM relative to control
Sequence of Histamine H2 receptor (Homo sapiens) (P25021 whole entry): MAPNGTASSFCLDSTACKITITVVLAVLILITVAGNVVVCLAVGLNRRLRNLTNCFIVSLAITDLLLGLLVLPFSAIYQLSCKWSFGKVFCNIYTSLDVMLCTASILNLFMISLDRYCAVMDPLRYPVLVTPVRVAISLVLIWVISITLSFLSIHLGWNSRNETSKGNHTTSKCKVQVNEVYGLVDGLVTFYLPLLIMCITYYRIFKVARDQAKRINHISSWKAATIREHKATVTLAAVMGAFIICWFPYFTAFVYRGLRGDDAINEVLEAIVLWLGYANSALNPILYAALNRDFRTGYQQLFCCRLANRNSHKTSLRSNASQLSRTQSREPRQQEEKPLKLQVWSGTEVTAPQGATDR

[12] = target: T5, Sodium-dependent noradrenaline transporter (Homo sapiens, UniProt P23975); experiment: Inhibition of radioligand binding to noradrenaline transporter (unknown origin) at 1 uM relative to control
T5 sequence (P23975 whole entry): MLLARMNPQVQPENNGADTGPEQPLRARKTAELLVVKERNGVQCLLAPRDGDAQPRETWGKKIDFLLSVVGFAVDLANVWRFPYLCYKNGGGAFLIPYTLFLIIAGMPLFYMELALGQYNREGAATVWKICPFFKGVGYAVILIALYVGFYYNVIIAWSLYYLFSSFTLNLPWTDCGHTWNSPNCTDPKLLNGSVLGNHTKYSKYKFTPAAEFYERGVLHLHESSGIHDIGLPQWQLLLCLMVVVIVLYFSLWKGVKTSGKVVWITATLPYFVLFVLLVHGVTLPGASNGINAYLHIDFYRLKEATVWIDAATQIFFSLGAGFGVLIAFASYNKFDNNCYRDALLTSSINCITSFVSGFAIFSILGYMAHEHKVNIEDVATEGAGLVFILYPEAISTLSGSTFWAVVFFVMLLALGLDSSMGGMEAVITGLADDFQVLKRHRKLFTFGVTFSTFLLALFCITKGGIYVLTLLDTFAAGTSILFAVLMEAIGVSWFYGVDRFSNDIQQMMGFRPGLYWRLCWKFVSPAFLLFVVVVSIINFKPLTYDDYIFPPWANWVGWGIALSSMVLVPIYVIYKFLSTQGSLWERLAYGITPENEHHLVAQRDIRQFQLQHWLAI

[13] = target: T6, Sodium-dependent dopamine transporter (Homo sapiens, UniProt Q01959); experiment: Inhibition of radioligand binding to dopamine transporter (unknown origin) at 1 uM relative to control
T6 sequence (Q01959 whole entry): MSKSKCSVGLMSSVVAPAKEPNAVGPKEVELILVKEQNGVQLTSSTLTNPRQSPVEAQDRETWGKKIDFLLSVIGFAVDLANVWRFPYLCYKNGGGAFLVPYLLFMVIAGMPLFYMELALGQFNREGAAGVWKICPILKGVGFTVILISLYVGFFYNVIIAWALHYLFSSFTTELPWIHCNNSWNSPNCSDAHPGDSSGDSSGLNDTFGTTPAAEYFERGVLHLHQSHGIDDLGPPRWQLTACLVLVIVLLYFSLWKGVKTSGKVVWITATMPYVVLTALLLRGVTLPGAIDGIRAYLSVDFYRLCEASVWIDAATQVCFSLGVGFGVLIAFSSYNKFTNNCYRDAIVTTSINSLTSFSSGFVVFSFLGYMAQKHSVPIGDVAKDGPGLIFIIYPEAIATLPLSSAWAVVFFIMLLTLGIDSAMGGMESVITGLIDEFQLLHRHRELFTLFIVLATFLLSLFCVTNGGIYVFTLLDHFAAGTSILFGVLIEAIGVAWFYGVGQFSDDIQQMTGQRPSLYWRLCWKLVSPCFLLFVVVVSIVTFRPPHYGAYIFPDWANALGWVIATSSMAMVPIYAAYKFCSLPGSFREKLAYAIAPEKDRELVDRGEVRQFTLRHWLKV

[14] = target: T4, Sigma non-opioid intracellular receptor 1; experiment: Binding affinity to sigma-1 receptor (unknown origin)
[15] = target: Sigma intracellular receptor 2 (Homo sapiens, UniProt Q5BJF2); experiment: Binding affinity to sigma-2 receptor (unknown origin)
Sequence of Sigma intracellular receptor 2 (Homo sapiens, UniProt Q5BJF2) (Q5BJF2 whole entry): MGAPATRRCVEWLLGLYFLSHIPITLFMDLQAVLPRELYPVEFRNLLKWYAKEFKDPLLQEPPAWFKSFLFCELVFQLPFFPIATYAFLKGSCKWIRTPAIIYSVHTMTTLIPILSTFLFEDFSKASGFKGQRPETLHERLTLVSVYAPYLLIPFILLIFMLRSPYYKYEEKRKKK

[16] = target: Kappa-type opioid receptor (Homo sapiens, UniProt P41145); experiment: Binding affinity to kappa opioid receptor (unknown origin)
Sequence of Kappa-type opioid receptor (P41145 whole entry): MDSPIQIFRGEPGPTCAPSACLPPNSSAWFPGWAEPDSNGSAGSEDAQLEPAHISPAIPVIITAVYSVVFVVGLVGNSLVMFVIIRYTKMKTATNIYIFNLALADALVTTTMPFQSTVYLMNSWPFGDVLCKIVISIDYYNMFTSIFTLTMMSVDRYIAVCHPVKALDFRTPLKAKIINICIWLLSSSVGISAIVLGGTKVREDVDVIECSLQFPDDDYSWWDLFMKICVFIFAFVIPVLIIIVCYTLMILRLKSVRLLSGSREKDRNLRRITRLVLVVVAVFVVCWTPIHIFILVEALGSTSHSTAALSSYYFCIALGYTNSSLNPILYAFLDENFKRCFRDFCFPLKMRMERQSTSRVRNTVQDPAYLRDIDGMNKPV

[17] = Displacement of [3H]DTG from sigma2 receptor in guinea pig brain membranes by scintillation counting method; format: cell membranes, Cavia porcellus, Membrane
[18] = target: Muscarinic acetylcholine receptor M2 (Homo sapiens, UniProt P08172); experiment: Binding affinity to muscarinic acetylcholine receptor M2 (unknown origin)
Sequence of Muscarinic acetylcholine receptor M2 (P08172 whole entry): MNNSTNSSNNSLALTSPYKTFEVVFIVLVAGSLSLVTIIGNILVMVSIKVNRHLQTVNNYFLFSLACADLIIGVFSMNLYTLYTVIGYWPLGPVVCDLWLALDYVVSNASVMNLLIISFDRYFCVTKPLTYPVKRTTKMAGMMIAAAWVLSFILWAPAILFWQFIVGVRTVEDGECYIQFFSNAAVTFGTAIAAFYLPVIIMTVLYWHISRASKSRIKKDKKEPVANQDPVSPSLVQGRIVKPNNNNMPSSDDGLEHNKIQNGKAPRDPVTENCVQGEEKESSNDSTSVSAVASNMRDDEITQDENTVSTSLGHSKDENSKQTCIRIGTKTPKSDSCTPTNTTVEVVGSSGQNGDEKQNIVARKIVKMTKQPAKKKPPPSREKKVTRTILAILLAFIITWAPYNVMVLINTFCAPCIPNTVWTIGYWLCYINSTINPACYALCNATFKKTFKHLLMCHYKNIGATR

[19] = target: Muscarinic acetylcholine receptor M3 (Homo sapiens, UniProt P20309); experiment: Binding affinity to muscarinic acetylcholine receptor M3 (unknown origin)
Sequence of Muscarinic acetylcholine receptor M3 (P20309 whole entry): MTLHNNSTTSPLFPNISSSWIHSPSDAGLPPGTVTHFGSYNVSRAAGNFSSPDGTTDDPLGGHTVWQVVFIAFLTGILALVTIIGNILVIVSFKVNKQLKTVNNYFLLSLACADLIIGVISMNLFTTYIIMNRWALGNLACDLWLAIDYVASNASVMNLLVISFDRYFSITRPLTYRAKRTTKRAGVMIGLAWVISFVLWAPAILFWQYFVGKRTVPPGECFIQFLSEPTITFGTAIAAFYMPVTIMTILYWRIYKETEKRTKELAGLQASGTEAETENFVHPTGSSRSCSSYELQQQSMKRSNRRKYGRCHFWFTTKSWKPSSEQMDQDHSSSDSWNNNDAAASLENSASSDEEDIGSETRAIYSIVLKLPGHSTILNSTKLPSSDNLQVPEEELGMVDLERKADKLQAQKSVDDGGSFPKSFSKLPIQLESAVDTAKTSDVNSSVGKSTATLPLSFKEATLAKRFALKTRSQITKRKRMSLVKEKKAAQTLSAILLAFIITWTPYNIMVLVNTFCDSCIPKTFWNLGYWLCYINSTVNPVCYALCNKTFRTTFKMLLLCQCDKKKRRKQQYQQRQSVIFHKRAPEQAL

[20] = target: Muscarinic acetylcholine receptor M1 (Homo sapiens, UniProt P11229); experiment: Binding affinity to muscarinic acetylcholine receptor M1 (unknown origin)
[21] = target: Muscarinic acetylcholine receptor M4 (Homo sapiens, UniProt P08173); experiment: Binding affinity to muscarinic acetylcholine receptor M4 (unknown origin)
[22] = target: Alpha-2A adrenergic receptor (Homo sapiens, UniProt P08913); experiment: Binding affinity to alpha 2A adrenoceptor (unknown origin)
[23] = target: T2, Sigma intracellular receptor 2; experiment: Displacement of [3H]DTG from sigma2 receptor in Wistar Hannover rat liver membranes incubated for 120 mins by solid scintillation counting method; format: cell membranes, Membrane
[24] = target: T3, Sigma non-opioid intracellular receptor 1; experiment: Displacement of [3H]-(+)-pentazocine from sigma 1 receptor in Dunkin guinea pig brain membranes incubated for 120 mins by scintillation counting method; format: cell membranes, Membrane
[25] = Selectivity ratio of Ki for sigma2 receptor in Wistar Hannover rat liver membranes to Ki for sigma 1 receptor in Dunkin guinea pig brain membranes; format: cell membranes
[26] = target: T3, Sigma non-opioid intracellular receptor 1; experiment: Displacement of [3H]-(+)-pentazocine from sigma 1 receptor in Dunkin-Hartley guinea pig brain membranes incubated for 180 mins by liquid scintillation counting method; format: cell membranes, Membrane
[27] = Displacement of [3H]-dio-tolylguanidine from Sigma 2 receptor in Dunkin-Hartley guinea pig brain membrane incubated for 120 mins in presence of sigma1 blocker (+)-SKF-10047 by liquid scintillation counting method; format: cell membranes, Cavia porcellus
[28] = target: Histamine H3 receptor (Rattus norvegicus, UniProt Q9QYN8); experiment: Displacement of [3H]-methylhistamine from Histamine H3 receptor in rat cerebral cortex incubated for 30 min by liquid scintillation counting method; format: tissue-based
Sequence of Histamine H3 receptor (Q9QYN8 whole entry): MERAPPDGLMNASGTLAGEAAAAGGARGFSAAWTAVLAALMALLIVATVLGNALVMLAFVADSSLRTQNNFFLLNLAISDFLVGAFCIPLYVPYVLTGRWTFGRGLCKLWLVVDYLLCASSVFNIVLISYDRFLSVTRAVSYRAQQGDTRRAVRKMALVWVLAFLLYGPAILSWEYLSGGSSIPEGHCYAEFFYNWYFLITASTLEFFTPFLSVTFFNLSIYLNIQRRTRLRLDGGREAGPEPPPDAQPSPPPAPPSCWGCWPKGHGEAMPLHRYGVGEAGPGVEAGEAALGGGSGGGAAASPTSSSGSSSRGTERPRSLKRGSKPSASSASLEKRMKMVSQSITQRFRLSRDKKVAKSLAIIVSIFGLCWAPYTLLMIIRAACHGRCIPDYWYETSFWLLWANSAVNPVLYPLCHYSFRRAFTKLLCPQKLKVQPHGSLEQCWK

[29] = species on record: Cavia porcellus; experiment: Selectivity ratio of Ki for sigma 2 receptor in Dunkin-Hartley guinea pig brain membranes to Ki for sigma 1 receptor in Dunkin-Hartley guinea pig brain membrane
[30] = target: Sigma non-opioid intracellular receptor 1 (Mus musculus, UniProt O55242); experiment: Inhibition of radioligand binding to sigma1 receptor in C57BL/6 mouse brain membranes; format: cell membranes, Membrane
[31] = target: Sigma intracellular receptor 2 (Mus musculus, UniProt Q8VD00); experiment: Inhibition of radioligand binding to sigma2 receptor in C57BL/6 mouse brain membranes; format: cell membranes, Membrane
Sequence of Sigma intracellular receptor 2 (Mus musculus, UniProt Q8VD00) (Q8VD00 whole entry): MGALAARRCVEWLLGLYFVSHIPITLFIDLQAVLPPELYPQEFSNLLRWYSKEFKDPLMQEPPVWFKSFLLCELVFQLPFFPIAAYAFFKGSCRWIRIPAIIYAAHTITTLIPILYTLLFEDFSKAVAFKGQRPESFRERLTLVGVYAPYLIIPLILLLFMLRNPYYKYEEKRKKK

[32] = target: T6, Sodium-dependent dopamine transporter; experiment: Displacement of [3H]WIN35428 from dopamine transporter (unknown origin) by liquid scintillation counting method
[33] = target: Sodium-dependent serotonin transporter (Homo sapiens, UniProt P31645); experiment: Displacement of [3H]citalopram from serotonin transporter (unknown origin) by liquid scintillation counting method
[34] = Selectivity ratio of Ki for displacement of [3H]DTG from sigma2 receptor in rat PC12 cells to Ki for displacement of [3H]-(+)-pentazocine from sigma1 receptor in guinea pig brain homogenate; format: cell-based
[35] = target: T5, Sodium-dependent noradrenaline transporter; experiment: Displacement of [3H]nisoxetine from norepinephrine transporter (unknown origin) by liquid scintillation counting method

T1 sequence (Q9R0C9 whole entry): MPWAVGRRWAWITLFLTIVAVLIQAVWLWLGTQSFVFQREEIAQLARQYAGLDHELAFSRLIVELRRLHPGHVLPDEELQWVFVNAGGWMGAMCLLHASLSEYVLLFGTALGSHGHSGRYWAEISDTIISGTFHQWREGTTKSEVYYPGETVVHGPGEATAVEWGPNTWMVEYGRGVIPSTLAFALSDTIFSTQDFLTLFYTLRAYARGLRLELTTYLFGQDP

Question: What does the source list for c1ccc(CN2CCC3(CCc4ccccc4S3)CC2)cc1?
Answer: Ki [1]: 0.5 nM; Ki [2]: 416 nM

Question: With O=C(COc1ccc(Cl)c(Cl)c1)NCCN1CCOCC1 as the compound, how does the Ki [3] read?
Answer: Its Ki is 42 nM.

Question: What about the Ki [4] of the same compound?
Answer: Its Ki is 1500 nM.

Question: For c1ccc(CO[C@H](c2ccccc2)[C@H]2CCN(Cc3ccccc3)Cc3ccccc32)cc1, which Ratio Ki [5] is on record?
Answer: The Ratio Ki was > 52.

Question: And the Ki [4]?
Answer: The Ki was 668 nM.

Question: What about the Ki [6] of the same compound?
Answer: Its Ki is 9 nM.

Question: With CCCN1CCC(c2cccc(S(C)(=O)=O)c2)CC1 [PRIDOPIDINE] as the compound, how does the Ki [7] read?
Answer: The Ki was 81.7 nM.

Question: Which results are given for CN(C)CCCN1c2ccccc2CCc2ccccc21 [IMIPRAMINE]?
Answer: Ki [8]: 343 nM; Ki [9]: 2110 nM

Question: What does the source list for Fc1ccc(CN2CCC(Cc3ccccc3)c3ccccc3C2)cc1 (configuration not stated)?
Answer: inhibition [10]: 91%; Ratio Ki [5]: > 52; inhibition [11]: 59%; inhibition [12]: 71%; inhibition [13]: 85%; Ki [4]: 889 nM; Ki [6]: 7.1 nM

Question: Which Ratio Ki [5] does the source give for c1ccc(CC2CCN(CC3CCCCC3)Cc3ccccc32)cc1 (configuration not stated) here?
Answer: Its Ratio Ki is > 52.

Question: What about the Ki [4] of the same compound?
Answer: Its Ki is 125 nM.

Question: What about the Ki [6] of the same compound?
Answer: The Ki was 2.4 nM.

Question: Which results are given for CCOC1(c2ncc(-c3ccncc3)s2)CCN(Cc2ccccc2)CC1?
Answer: Ratio Ki [5]: > 1500; Ki [4]: 3600 nM; Ki [6]: 1.9 nM

Question: Which Ki [14] does the source give for CCN(CC)CCOCCOC(=O)C1(c2ccccc2)CCCC1 [CARBETAPENTANE] here?
Answer: The Ki was 129 nM.

Question: What about the Ki [15] of the same compound?
Answer: Its Ki is 1950 nM.

Question: For CC(C)=CCN1CCC2(C)c3cc(O)ccc3CC1C2C (configuration not stated) [PENTAZOCINE], which Ki [16] is on record?
Answer: Its Ki is 2.2 nM.

Question: For COc1ccc(CCN2CCN(CCCc3ccccc3)CC2)cc1OC [[11C]SA4503], which IC50 [17] is on record?
Answer: Its IC50 is 1800 nM.

Question: For CN(C)CC1CCOC1(c1ccccc1)c1ccccc1 (configuration not stated) [BLARCAMESINE], which IC50 [18] is on record?
Answer: The IC50 was 3300 nM.

Question: And the IC50 [19]?
Answer: The IC50 was 3300 nM.

Question: And the IC50 [20]?
Answer: Its IC50 is 3300 nM.

Question: And the IC50 [21]?
Answer: Its IC50 is 3300 nM.

Question: What about the IC50 [14] of the same compound?
Answer: Its IC50 is 860 nM.

Question: Which Ki [22] does the source give for C=C1CCN2Cc3ccc(OC)cc3[C@H]3CCCC[C@]32C1 here?
Answer: Its Ki is 531 nM.

Question: What about the Ki [14] of the same compound?
Answer: Its Ki is 8 nM.

Question: What about the Ki [15] of the same compound?
Answer: The Ki was 152 nM.

Question: With COc1ccc2c(CCCCN3C4CCCC3CCC4)cccc2c1 as the compound, how does the Ki [23] read?
Answer: The Ki was 226 nM.

Question: And the Ki [24]?
Answer: Its Ki is 1.03 nM.

Question: What about the Ratio Ki [25] of the same compound?
Answer: The Ratio Ki was 317.

Question: Which Ki [9] does the source give for CNCCC(Oc1ccc(C(F)(F)F)cc1)c1ccccc1 (configuration not stated) [FLUOXETINE] here?
Answer: The Ki was 16100 nM.

Question: Which results are given for CCOC1(c2ncc(-c3cccnc3)s2)CCN(Cc2ccccc2)CC1?
Answer: Ratio Ki [5]: > 1500; Ki [4]: 2130 nM; Ki [6]: 1.3 nM

Question: For Clc1ccc(-c2noc(CCCCN3CCOCC3)n2)c(Cl)c1, which Ki [26] is on record?
Answer: The Ki was 0.28 nM.

Question: And the Ki [27]?
Answer: The Ki was 164 nM.

Question: What about the Ki [28] of the same compound?
Answer: Its Ki is 23.2 nM.

Question: And the Ratio Ki [29]?
Answer: Its Ratio Ki is 587.

Question: Which results are given for C#CCN(C)CCCOc1ccc(Cl)cc1Cl [CLORGILINE]?
Answer: Ki [30]: 2.9 nM; Ki [31]: 505 nM

Question: Which results are given for c1ccc(OCc2cc(OCCNC3CCC3)no2)cc1?
Answer: Ki [32]: > 7000 nM; Ki [33]: > 7000 nM; Ratio Ki [34]: 990; Ki [35]: > 7000 nM
